Literature values in PMC8473701.

Assay: not told

Row | log partition aniline / water [log10] | log partition hexadecane / water [log10] | log partition 1-octanol / water [log10] | log partition chloroform / water [log10] | log partition octanol / water [log10] | Structure (SMILES)
1 | 1.481 | 1.22 | – | – | – | CCCl
2 | 2.488 | 3.11 | – | – | – | CC(C)C
3 | 2.880 | 3.76 | – | – | – | CCC(C)C
4 | – | 3.99 | 3.37 | – | – | CC1CCCC1
5 | – | -1.08 | – | 0.77 | 1.58 | COc1cccc(O)c1
6 | – | -0.79 | – | 1.04 | 0.23 | Cc1cnccn1
7 | 1.562 | 1.06 | 1.25 | 2.00 | 1.25 | ClCCl
